“Also recorded” adds a separate entry of the source.
How the values were obtained:
[1] = tested on: HUVEC cord formation in co-culture with NHDF; test: HUVEC/NHDF cord formation co-culture assay (in vitro angiogenesis, high content imaging); assay type: cell-based, human; conditions: for EC50: Homo sapiens, cord area normalized to control group, mean of two to four independent experiments, sigmoidal dose-response fit, read-out: observed EC50 of cord formation inhibition (cord area)
Description: In vitro HUVEC cord formation co-culture was performed using the AngioKit commercially available from TCScellworks (Buckingham, UK) adapted to a 24-well format. To test HUVEC and NHDF passage dependence effects, the co-culture was done in house adapted to a 96-well format. Briefly, HUVEC cells were co-cultured onto human dermal fibroblast feeder layers in Optimised medium (TCScellworks, Buckingham, UK) for a total of about 12 days. Treatment started the day when the plates were received; usually three to four days after initial plating. Medium with or without growth factors or compounds was replenished every 2 to 3 days. Cells were fixed with 70% cold ethanol at the end of the culture and processed for anti-CD31/Alexa 488 immunofluorescence. To visualize feeder layer fibroblasts, some cultures were stained using a polyclonal antibody against Vimentin (Abcam, Cambridge, Massachusetts) along with an Alexa 568 conjugated secondary antibody to examine the feeder cell integrity. Nuclear staining was performed using Hoechst staining (Invitrogen Molecular Probe, Carlsbad, California).
Immunofluorescence stained co-culture plates were scanned using ArrayScan VTI (Cellomics, Pittsburgh, Pennsylvania) and the multi-parameter tube formation Bioapplication was used for quantification. Morphological measurements included cord length, width, area, percent connected cord, branching node and segment count, nuclei per cord, angiogenic index (expressed as the percentage of area covered by connected tube), etc. General cytotoxicity was monitored by examination of the nuclear staining of the feed layers.

[2] = set-up: method as in PMID 15919970; conditions: cited from earlier work

O=C(Cc1ccc(-c2cnc3cc(-c4ccncc4)ccn23)cc1)Nc1cccc(C(F)(F)F)c1 [LY2401401]
EC50 [1]: 9.2 nM

Clc1ccc(Nc2nnc(Cc3ccncc3)c3ccccc23)cc1 [PTK787]
outcome in clinical trials [2]: failed to achieve statistical significance
EC50 [1]: 140 nM

CCN(CC)CCNC(=O)c1c(C)[nH]c(/C=C2\C(=O)Nc3ccc(F)cc32)c1C [Sunitinib]
effect on cord mass in length and area ([1]; 30 nM): significantly inhibited
number of connected cords, branching nodes, and segment measurements ([1]; 30 nM): all significantly reduced
number of nuclei per tube ([1]; 30 nM): significantly reduced
effect on angiogenesis / cord formation ([1]; 30 nM compound, compared to medium control): significantly inhibited angiogenesis; also recorded: drastically inhibited cord formation
EC50 [1]: 39 nM

VEGF
effect on angiogenesis / cord formation ([1]; 20 ng/ml VEGF added to culture): significantly increased angiogenesis; also recorded: greatly enhanced

Source: PMC2435557, “Developing and applying a gene functional association network for anti-angiogenic kinase inhibitor activity assessment in an angiogenesis co-culture model” (BMC Genomics, 2008)
